# Measurements from US11198713B2, “Agents modulating beta-catenin functions and methods thereof” (FOG PHARMACEUTICALS, INC., priority 2017, dated 2021).
# Like-named read-outs stand apart in the source and are kept apart here. Numbered stars: 1 amine (or outer) side, 2 acyl side, 3 side chain; on linkers, the order of the positions; unused ones are H or OH. Bridge positions count the residues as written; N and C are the ends. Square brackets hold non-standard residues; d marks the D form. Peptide text beside a SMILES is read from it. X16 = C=CCOC(=O)N1CC[C@@](N[*:1])(C(=O)[*:2])C1; X10 = CN(CC=[*:3])C[C@@](C)(N[*:1])C(=O)[*:2]; X14 = O=C([C@@]1(N[*:1])CCN(CC=[*:3])C1)[*:2]; X11 = CN(CC=[*:3])C[C@](C)(N[*:1])C(=O)[*:2]; X6 = CN(CC=[*:3])CC[C@](C)(N[*:1])C(=O)[*:2]; X5 = C[C@](CCCCCC=[*:3])(N[*:1])C(=O)[*:2]; X7 = C[C@](CCCCC=[*:3])(N[*:1])C(=O)[*:2]; R8 = C=CCCCCCC[C@@](C)(N)C(=O)O; S8 = C=CCCCCCC[C@](C)(N)C(=O)O
# Target: T1, full-length beta-catenin (Axin site) (Homo sapiens, UniProt P35222)
# T1 construct: 15 nM full-length beta-catenin, 20 nM FITC labeled peptide in buffer
# T1 sequence (P35222 1-781): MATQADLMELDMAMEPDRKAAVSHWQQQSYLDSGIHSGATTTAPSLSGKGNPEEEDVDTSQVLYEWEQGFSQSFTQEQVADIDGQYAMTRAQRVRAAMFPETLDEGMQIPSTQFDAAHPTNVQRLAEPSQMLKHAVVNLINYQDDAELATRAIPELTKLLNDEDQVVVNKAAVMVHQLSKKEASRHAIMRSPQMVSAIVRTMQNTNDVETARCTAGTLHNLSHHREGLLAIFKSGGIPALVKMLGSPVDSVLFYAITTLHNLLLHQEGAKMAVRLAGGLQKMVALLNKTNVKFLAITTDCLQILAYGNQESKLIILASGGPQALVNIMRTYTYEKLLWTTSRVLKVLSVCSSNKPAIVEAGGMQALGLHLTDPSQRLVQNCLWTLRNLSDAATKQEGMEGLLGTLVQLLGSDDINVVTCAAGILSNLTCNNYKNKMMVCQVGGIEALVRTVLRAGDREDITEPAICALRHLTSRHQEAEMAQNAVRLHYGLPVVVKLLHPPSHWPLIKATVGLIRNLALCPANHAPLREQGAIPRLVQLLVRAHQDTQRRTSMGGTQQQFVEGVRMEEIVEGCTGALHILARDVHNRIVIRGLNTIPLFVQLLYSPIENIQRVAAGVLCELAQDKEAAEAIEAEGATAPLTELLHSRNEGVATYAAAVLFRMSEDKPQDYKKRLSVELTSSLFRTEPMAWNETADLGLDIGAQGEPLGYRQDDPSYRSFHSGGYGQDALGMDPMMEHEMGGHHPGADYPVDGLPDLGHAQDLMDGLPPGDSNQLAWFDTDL
# Assay: Competition fluorescence polarization assay (Axin site probe)
# Type: binding
# Summary of the method: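 Competition FP: 15 nM full-length β-catenin pre-incubated 5 min with 20 nM FITC-labelled stapled Axin-site peptide, then titrated peptide added (3-fold series from 5 μM) for 15 min in the dark. Buffer 50 mM Tris pH 8.0, 250 mM NaCl, 2% glycerol, 0.5 mM EDTA; duplicate reads.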
# [1] = competition fluorescence polarization, Table 2, read-out: in vitro FP EC50
Compound,"EC50 (competition with FITC labeled Axin-site probe, 15 nM full-length beta-catenin, read-out: FP EC50) [nM]",EC50 [1] [nM]
"CC[C@H](C)[C@@H]1NC(=O)[C@@](C)(NC(=O)[C@H](CCC(N)=O)NC(=O)[C@@H]2CCCN2C(C)=O)CCCC=CCCC[C@@](C)(C(=O)N[C@@H](Cc2c[nH]cn2)C(=O)N[C@H](C(=O)N[C@@H](CCCNC(=N)N)C(=O)N[C@@H](CCCNC(=N)N)C(=O)N[C@H](C(=O)N[C@@H](Cc2c[nH]c3ccccc23)C(=O)N[C@@H](CCCNC(=N)N)C(N)=O)C(C)C)C(C)C)NC(=O)[C@H](CC(=O)O)NC(=O)[C@H](CC(C)C)NC1=O (single isomer, unassigned) [FP-0787]",~100,–
"CC[C@H](C)[C@@H]1NC(=O)[C@@]2(NC(=O)[C@H](C)NC(=O)[C@@H]3CCCN3C(C)=O)CCN(C2)C(=O)OCC=CCCCCCC[C@@](C)(C(=O)N[C@@H](CCCNC(=N)N)C(=O)N[C@H](C(=O)N[C@@H](Cc2c[nH]c3ccccc23)C(N)=O)C(C)C)NC(=O)[C@H](C(C)C)NC(=O)[C@H](Cc2c[nH]cn2)NC(=O)[C@H](C)NC(=O)[C@H](CC(=O)O)NC(=O)[C@H](CC(C)C)NC1=O [FP0005c, Ac-P-A-MC-I-L-D-A-H-V-S8-R-V-W-NH2]",–,< 100
"CC[C@H](C)[C@@H]1NC(=O)[C@@]2(NC(=O)[C@H](C)NC(=O)[C@@H]3CCCN3C(C)=O)CCN(CC=CCCCCCC[C@@](C)(C(=O)N[C@@H](CCCNC(=N)N)C(=O)N[C@H](C(=O)N[C@@H](Cc3c[nH]c4ccccc34)C(N)=O)C(C)C)NC(=O)[C@H](C(C)C)NC(=O)[C@H](Cc3c[nH]cn3)NC(=O)[C@H](C)NC(=O)[C@H](CC(=O)O)NC(=O)[C@H](CC(C)C)NC1=O)C2 [FP0006a, Ac-P-A-MC-I-L-D-A-H-V-S8-R-V-W-NH2] (Ac-PA[X14]ILDAHV[S8]RVW-NH2; staple 3-10)",–,< 100
"C=CCCCCCC[C@@](C)(NC(=O)[C@H](C)NC(C)=O)C(=O)N[C@H](C(=O)N[C@@H](CC(C)C)C(=O)N[C@@H](CC(=O)O)C(=O)N[C@@H](C)C(=O)N[C@@H](Cc1c[nH]cn1)C(=O)N[C@H](C(=O)N[C@@]1(C(=O)N[C@@H](CCCNC(=N)N)C(=O)N[C@H](C(=O)N[C@@H](Cc2c[nH]c3ccccc23)C(N)=O)C(C)C)CCN(C(=O)OCC=C)C1)[C@@H](C)CC)[C@@H](C)CC [FP0217u, Ac-A-R8-I-L-D-A-H-I-MB-R-V-W-NH2] (Ac-A[R8]ILDAHI[X16]RVW-NH2)",–,< 100
"CC[C@H](C)[C@@H]1NC(=O)[C@H](Cc2c[nH]cn2)NC(=O)[C@H](C)NC(=O)[C@H](CC(=O)O)NC(=O)[C@H](CC(C)C)NC(=O)[C@H]([C@@H](C)CC)NC(=O)[C@](C)(NC(=O)[C@H](C)NC(C)=O)CN(C)CC=CCCCCCC[C@@](C)(C(=O)N[C@@H](CCCNC(=N)N)C(=O)N[C@H](C(=O)N[C@@H](Cc2c[nH]c3ccccc23)C(N)=O)C(C)C)NC1=O [FP0335a, Ac-A-ME-I-L-D-A-H-I-S8-R-V-W-NH2] (Ac-A[X10]ILDAHI[S8]RVW-NH2; staple 2-9)",–,100 to 500
"CC[C@H](C)[C@@H]1NC(=O)[C@H](Cc2c[nH]cn2)NC(=O)[C@H](C)NC(=O)[C@H](CC(=O)O)NC(=O)[C@H](CC(C)C)NC(=O)[C@H]([C@@H](C)CC)NC(=O)[C@](C)(NC(=O)[C@H](C)NC(C)=O)CCCCCCC=CCOC(=O)N2CC[C@@](C(=O)N[C@@H](C)C(=O)N[C@H](C(=O)N[C@@H](Cc3c[nH]c4ccccc34)C(N)=O)C(C)C)(C2)NC1=O [FP0410c, Ac-A-R8-I-L-D-A-H-I-MB-A-V-W-NH2]",–,100 to 500
"CC[C@H](C)[C@@H]1NC(=O)[C@H](Cc2c[nH]cn2)NC(=O)[C@H](C)NC(=O)[C@H](CC(=O)O)NC(=O)[C@H](CC(C)C)NC(=O)[C@H]([C@@H](C)CC)NC(=O)[C@](C)(NC(=O)[C@H](C)NC(C)=O)CCCCCC=CCN(C)C[C@@](C)(C(=O)N[C@@H](CCCNC(=N)N)C(=O)N[C@H](C(=O)N[C@@H](Cc2c[nH]c3ccccc23)C(N)=O)C(C)C)NC1=O [FP0495a, Ac-A-R7-I-L-D-A-H-I-MD-R-V-W-NH2] (Ac-A[X5]ILDAHI[X11]RVW-NH2; staple 2-9)",–,500 to 5000
"CC[C@H](C)[C@@H]1NC(=O)[C@H](Cc2c[nH]cn2)NC(=O)[C@H](C)NC(=O)[C@H](CC(=O)O)NC(=O)[C@H](CC(C)C)NC(=O)[C@H]([C@@H](C)CC)NC(=O)[C@](C)(NC(=O)[C@H](C)NC(C)=O)CCCCCC=CCOC(=O)N(C)C[C@@](C)(C(=O)N[C@@H](CCCNC(=N)N)C(=O)N[C@H](C(=O)N[C@@H](Cc2c[nH]c3ccccc23)C(N)=O)C(C)C)NC1=O [FP0495c, Ac-A-R7-I-L-D-A-H-I-MD-R-V-W-NH2]",–,100 to 500
"CC[C@H](C)[C@@H]1NC(=O)[C@H](Cc2c[nH]cn2)NC(=O)[C@H](C)NC(=O)[C@H](CC(=O)O)NC(=O)[C@H](CC(C)C)NC(=O)[C@H]([C@@H](C)CC)NC(=O)[C@](C)(NC(=O)[C@H](C)NC(C)=O)CCCC=CCOC(=O)N(C)CC[C@@](C)(C(=O)N[C@@H](CCCNC(=N)N)C(=O)N[C@H](C(=O)N[C@@H](Cc2c[nH]c3ccccc23)C(N)=O)C(C)C)NC1=O [FP0501c, Ac-A-R5-I-L-D-A-H-I-MF-R-V-W-NH2]",–,100 to 500
"CC[C@H](C)[C@@H]1NC(=O)[C@H](Cc2c[nH]cn2)NC(=O)[C@H](C)NC(=O)[C@H](CC(=O)O)NC(=O)[C@H](CC(C)C)NC(=O)[C@H]([C@@H](C)CC)NC(=O)[C@](C)(NC(=O)[C@H](C)NC(C)=O)CCCCC=CCN(C)CC[C@@](C)(C(=O)N[C@@H](CCCNC(=N)N)C(=O)N[C@H](C(=O)N[C@@H](Cc2c[nH]c3ccccc23)C(N)=O)C(C)C)NC1=O [FP0502a, Ac-A-R6-I-L-D-A-H-I-MF-R-V-W-NH2] (Ac-A[X7]ILDAHI[X6]RVW-NH2; staple 2-9)",–,500 to 5000

# Results, then the compound that gave them:
"EC50 (competition with FITC labeled Axin-site probe, 15 nM full-length beta-catenin, read-out: FP EC50) [nM]",EC50 [1] [nM],Compound
–,100 to 500,"CC[C@H](C)[C@@H]1NC(=O)[C@H](Cc2c[nH]cn2)NC(=O)[C@H](C)NC(=O)[C@H](CC(N)=O)NC(=O)[C@H](CC(C)C)NC(=O)[C@H]([C@@H](C)CC)NC(=O)[C@](C)(NC(=O)[C@H](C)NC(C)=O)CCCCCCC=CCOC(=O)N2CC[C@@](C(=O)N[C@@H](CCCNC(=N)N)C(=O)N[C@H](C(=O)N[C@@H](Cc3c[nH]c4ccccc34)C(N)=O)C(C)C)(C2)NC1=O [FP0218c, Ac-A-R8-I-L-N-A-H-I-MB-R-V-W-NH2]"
–,100 to 500,"CC[C@H](C)[C@@H]1NC(=O)[C@H](Cc2c[nH]cn2)NC(=O)[C@H](C)NC(=O)[C@H]([C@@H](C)O)NC(=O)[C@H](CC(C)C)NC(=O)[C@H]([C@@H](C)CC)NC(=O)[C@](C)(NC(=O)[C@H](C)NC(C)=O)CCCCCCC=CCOC(=O)N2CC[C@@](C(=O)N[C@@H](CCCNC(=N)N)C(=O)N[C@H](C(=O)N[C@@H](Cc3c[nH]c4ccccc34)C(N)=O)C(C)C)(C2)NC1=O [FP0219c, Ac-A-R8-I-L-T-A-H-I-MB-R-V-W-NH2]"
–,500 to 5000,"CC[C@H](C)[C@@H]1NC(=O)[C@H](Cc2c[nH]cn2)NC(=O)[C@H](C)NC(=O)[C@H](CC(=O)O)NC(=O)[C@H](CC(C)C)NC(=O)[C@H](C)NC(=O)[C@](C)(NC(=O)[C@H](C)NC(C)=O)CCCCCCC=CCOC(=O)N2CC[C@@](C(=O)N[C@@H](CCCNC(=N)N)C(=O)N[C@H](C(=O)N[C@@H](Cc3c[nH]c4ccccc34)C(N)=O)C(C)C)(C2)NC1=O [FP0405c, Ac-A-R8-A-L-D-A-H-I-MB-R-V-W-NH2]"
–,100 to 500,"CC[C@H](C)[C@@H]1NC(=O)[C@H](Cc2c[nH]cn2)NC(=O)[C@H](C)NC(=O)[C@H](CC(=O)O)NC(=O)[C@H](C)NC(=O)[C@H]([C@@H](C)CC)NC(=O)[C@](C)(NC(=O)[C@H](C)NC(C)=O)CCCCCCC=CCOC(=O)N2CC[C@@](C(=O)N[C@@H](CCCNC(=N)N)C(=O)N[C@H](C(=O)N[C@@H](Cc3c[nH]c4ccccc34)C(N)=O)C(C)C)(C2)NC1=O [FP0406c, Ac-A-R8-I-A-D-A-H-I-MB-R-V-W-NH2]"
–,500 to 5000,"CC[C@H](C)[C@@H]1NC(=O)[C@H](Cc2c[nH]cn2)NC(=O)[C@H](C)NC(=O)[C@H](C)NC(=O)[C@H](CC(C)C)NC(=O)[C@H]([C@@H](C)CC)NC(=O)[C@](C)(NC(=O)[C@H](C)NC(C)=O)CCCCCCC=CCOC(=O)N2CC[C@@](C(=O)N[C@@H](CCCNC(=N)N)C(=O)N[C@H](C(=O)N[C@@H](Cc3c[nH]c4ccccc34)C(N)=O)C(C)C)(C2)NC1=O [FP0407c, Ac-A-R8-I-L-A-A-H-I-MB-R-V-W-NH2]"
–,> 5000,"CC[C@H](C)[C@@H]1NC(=O)[C@H](C)NC(=O)[C@H](C)NC(=O)[C@H](CC(=O)O)NC(=O)[C@H](CC(C)C)NC(=O)[C@H]([C@@H](C)CC)NC(=O)[C@](C)(NC(=O)[C@H](C)NC(C)=O)CCCCCCC=CCOC(=O)N2CC[C@@](C(=O)N[C@@H](CCCNC(=N)N)C(=O)N[C@H](C(=O)N[C@@H](Cc3c[nH]c4ccccc34)C(N)=O)C(C)C)(C2)NC1=O [FP0408c, Ac-A-R8-I-L-D-A-A-I-MB-R-V-W-NH2]"
–,> 5000,"CC[C@H](C)[C@@H]1NC(=O)[C@](C)(NC(=O)[C@H](C)NC(C)=O)CCCCCCC=CCOC(=O)N2CC[C@@](C(=O)N[C@@H](CCCNC(=N)N)C(=O)N[C@H](C(=O)N[C@@H](Cc3c[nH]c4ccccc34)C(N)=O)C(C)C)(C2)NC(=O)[C@H](C)NC(=O)[C@H](Cc2c[nH]cn2)NC(=O)[C@H](C)NC(=O)[C@H](CC(=O)O)NC(=O)[C@H](CC(C)C)NC1=O [FP0409c, Ac-A-R8-I-L-D-A-H-A-MB-R-V-W-NH2]"
